Assay results taken from patent US7026360B1, “Pharmaceutical compositions containing compounds with activity for the enhancement of absorption of active ingredients” (Inpharma S.A., priority 1999, dated 2006).

Test: Absorption after 8 hours of topical antiinflammatory formulations with or without 3% PFPE through pig skin, Franz cells (Example C)
Format: in vitro ADME
Details: topical formulation; for mcg of permeated active ingredient after 8 hours, Base formula: base formula without PFPE
Method: Apparatus: Franz Cells (manufacturer: Crown Glass Company Inc., New Jersey) Franz diffusion cells are one of the main systems used for the investigation of ex-vivo permeation. This study involved the use of three cells each with a 9 mm diameter donor compartment corresponding with a diffusion area of 64 mm^2. The receptor compartment has a capacity of 4.8 ml. The receptor chamber is heated to 37° C.± 1. The pig skin is placed between the donor compartment and the receptor chamber with the external skin surface facing the upper compartment. The test formulation is placed inside the donor compartment. The receptor chamber is filled with a phosphate buffer solution at pH 7.4 and at intervals between 0.5 and 8 hours, 2 ml of solution are drawn from this chamber. When each sample is taken fresh buffer solution heated to 37° C. is added in order to replenish the initial volume. The samples are then tested using a HPLC method. Each test is repeated three times. Verification of absorption after 8 hours, of topical formulations containing antiinflammatory drugs versus formulations which also contain 3% PFPE, through pig skin, using Franz cells, as described in Example A.

| Structure (SMILES) | mcg of permeated active ingredient after 8 hours, Base formula + 3% PFPE | mcg of permeated active ingredient after 8 hours, Base formula |
| --- | --- | --- |
| CCc1cccc2c3c([nH]c12)C(CC)(CC(=O)O)OCC3 (centres unmarked) [Etodolic Acid] | 9.93 µg | 0.53 µg |
| CC(C)Cc1ccc(C(C)C(=O)O)cc1 (centres unmarked) [Ibuprofen] | 6.84 µg | 0.21 µg |
| CN1C(C(=O)Nc2ccccn2)=C(O)c2ccccc2S1(=O)=O [Piroxicam] | 7.94 µg | 1.19 µg |
| O=C(O)Cc1ccccc1Nc1c(Cl)cccc1Cl [Diclofenac Sodium] | 8.66 µg | 1.82 µg |
